Measured values reported in PubChem BioAssay (NCI).
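Abbreviation: GI50, concentration required for 50% inhibition of growth. TGI denotes the concentration required for complete inhibition of growth.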

Columns and labels:
Assay in all cases: NCI anticancer screen, dose series, 384-well format; in the data active = GI50 below about 0.43 µM; inactive = the rest
786-0 renal = tested on: 786-0 renal
A498 renal = tested on: A498 renal
A549 NSCLC = tested on: A549 NSCLC
ACHN renal = tested on: ACHN renal
BT-549 breast = tested on: BT-549 breast
CAKI-1 renal = tested on: CAKI-1 renal
CCRF-CEM leukemia = tested on: CCRF-CEM leukemia
COLO 205 colon = tested on: COLO 205 colon
DU-145 prostate = tested on: DU-145 prostate
EKVX NSCLC = tested on: EKVX NSCLC
HCC-2998 colon = tested on: HCC-2998 colon
HCT-116 colon = tested on: HCT-116 colon
HCT-15 colon = tested on: HCT-15 colon
HL-60(TB) leukemia = tested on: HL-60(TB) leukemia
HOP-62 NSCLC = tested on: HOP-62 NSCLC
HOP-92 NSCLC = tested on: HOP-92 NSCLC
HS 578T breast = tested on: HS 578T breast
HT29 colon = tested on: HT29 colon
IGROV1 ovarian = tested on: IGROV1 ovarian
K-562 leukemia = tested on: K-562 leukemia
KM12 colon = tested on: KM12 colon
LOX IMVI melanoma = tested on: LOX IMVI melanoma
M14 melanoma = tested on: M14 melanoma
MCF7 breast = tested on: MCF7 breast
MDA-MB-231 breast = tested on: MDA-MB-231 breast
MDA-MB-435 melanoma = tested on: MDA-MB-435 melanoma
MDA-MB-468 breast = tested on: MDA-MB-468 breast
MOLT-4 leukemia = tested on: MOLT-4 leukemia
NCI-H226 lung = tested on: NCI-H226 lung
NCI-H23 lung = tested on: NCI-H23 lung
NCI-H322M lung = tested on: NCI-H322M lung
NCI-H460 NSCLC = tested on: NCI-H460 NSCLC
NCI-H522 lung = tested on: NCI-H522 lung
NCI/ADR-RES ovarian = tested on: NCI/ADR-RES ovarian
OVCAR-3 ovarian = tested on: OVCAR-3 ovarian
OVCAR-4 ovarian = tested on: OVCAR-4 ovarian
OVCAR-5 ovarian = tested on: OVCAR-5 ovarian
OVCAR-8 ovarian = tested on: OVCAR-8 ovarian
PC-3 prostate = tested on: PC-3 prostate
RPMI-8226 leukemia = tested on: RPMI-8226 leukemia
RXF 393 renal = tested on: RXF 393 renal
SF-268 CNS = tested on: SF-268 CNS
SF-295 CNS = tested on: SF-295 CNS
SF-539 CNS = tested on: SF-539 CNS
SK-MEL-2 melanoma = tested on: SK-MEL-2 melanoma
SK-MEL-28 melanoma = tested on: SK-MEL-28 melanoma
SK-MEL-5 melanoma = tested on: SK-MEL-5 melanoma
SN12C renal = tested on: SN12C renal
SNB-19 CNS = tested on: SNB-19 CNS
SNB-75 CNS = tested on: SNB-75 CNS
SW-620 colon = tested on: SW-620 colon
T-47D breast = tested on: T-47D breast
TK-10 renal = tested on: TK-10 renal
U251 glioblastoma = tested on: U251 glioblastoma
UACC-257 melanoma = tested on: UACC-257 melanoma
UACC-62 melanoma = tested on: UACC-62 melanoma
UO-31 renal = tested on: UO-31 renal

Nc1cc(C(F)F)c(-c2nc(N3[C@@H]4CC[C@H]3COC4)nc(N3[C@@H]4CC[C@H]3COC4)n2)cn1
32200 nM: TGI (MDA-MB-435 melanoma)
3670 nM: TGI (CAKI-1 renal)
12000 nM: TGI (EKVX NSCLC)
873 nM: TGI (SNB-75 CNS)
198 nM: TGI (RPMI-8226 leukemia)
9690 nM: TGI (MOLT-4 leukemia)
5930 nM: TGI (UACC-62 melanoma)
796 nM: TGI (UO-31 renal)
1530 nM: TGI (SK-MEL-5 melanoma)
inactive: GI50 ([…]-0 renal) 639 nM | GI50 (DU-145 prostate) 525 nM | GI50 (HCT-116 colon) 1440 nM | GI50 (HL-60(TB) leukemia) 2530 nM | GI50 (HOP-62 NSCLC) 497 nM | GI50 (HOP-92 NSCLC) 560 nM | GI50 (HT29 colon) 4210 nM | GI50 (K-562 leukemia) 523 nM | GI50 (LOX IMVI melanoma) 464 nM | GI50 (MDA-MB-435 melanoma) 499 nM | GI50 (NCI-H23 lung) 2180 nM | GI50 (NCI/ADR-RES ovarian) 921 nM | GI50 (OVCAR-5 ovarian) 718 nM | GI50 (OVCAR-8 ovarian) 545 nM | GI50 (SF-268 CNS) 1120 nM | GI50 (SF-539 CNS) 451 nM | GI50 (SK-MEL-2 melanoma) 2120 nM | GI50 (SK-MEL-28 melanoma) 446 nM | GI50 (SNB-19 CNS) 3030 nM | GI50 (SW-620 colon) 1510 nM | GI50 (U251 glioblastoma) 769 nM | GI50 (UACC-257 melanoma) 1500 nM
3630 nM: TGI (A498 renal)
2640 nM: TGI (BT-549 breast)
38000 nM: TGI (CCRF-CEM leukemia)
980 nM: TGI (IGROV1 ovarian) | TGI (MDA-MB-468 breast)
> 100000 nM: TGI (786-0 renal) | TGI (A549 NSCLC) | TGI (ACHN renal) | TGI (COLO 205 colon) | TGI (DU-145 prostate) | TGI (HCC-2998 colon) | TGI (HCT-116 colon) | TGI (HCT-15 colon) | TGI (HL-60(TB) leukemia) | TGI (HOP-92 NSCLC) | TGI (HT29 colon) | TGI (K-562 leukemia) | TGI (KM12 colon) | TGI (LOX IMVI melanoma) | TGI (M14 melanoma) | TGI (MCF7 breast) | TGI (MDA-MB-231 breast) | TGI (NCI-H23 lung) | TGI (NCI-H322M lung) | TGI (NCI-H460 NSCLC) | TGI (NCI/ADR-RES ovarian) | TGI (OVCAR-3 ovarian) | TGI (OVCAR-5 ovarian) | TGI (OVCAR-8 ovarian) | TGI (PC-3 prostate) | TGI (SF-268 CNS) | TGI (SF-539 CNS) | TGI (SK-MEL-28 melanoma) | TGI (SN12C renal) | TGI (SNB-19 CNS) | TGI (SW-620 colon) | TGI (U251 glioblastoma) | TGI (UACC-257 melanoma)
1580 nM: TGI (RXF 393 renal)
2210 nM: TGI (OVCAR-4 ovarian)
687 nM: TGI (HS 578T breast)
7530 nM: TGI (HOP-62 NSCLC)
active: GI50 (A498 renal) 89.9 nM | GI50 (A549 NSCLC) 338 nM | GI50 (ACHN renal) 426 nM | GI50 (BT-549 breast) 261 nM | GI50 (CAKI-1 renal) 311 nM | GI50 (CCRF-CEM leukemia) 301 nM | GI50 (COLO 205 colon) 368 nM | GI50 (EKVX NSCLC) 345 nM | GI50 (HCC-2998 colon) 407 nM | GI50 (HCT-15 colon) 419 nM | GI50 (HS 578T breast) 138 nM | GI50 (IGROV1 ovarian) 188 nM | GI50 (KM12 colon) 320 nM | GI50 (M14 melanoma) 358 nM | GI50 (MCF7 breast) 143 nM | GI50 (MDA-MB-231 breast) 338 nM | GI50 (MDA-MB-468 breast) 201 nM | GI50 (MOLT-4 leukemia) 158 nM | GI50 (NCI-H226 lung) 196 nM | GI50 (NCI-H322M lung) 398 nM | GI50 (NCI-H460 NSCLC) 105 nM | GI50 (NCI-H522 lung) 183 nM | GI50 (OVCAR-3 ovarian) 349 nM | GI50 (OVCAR-4 ovarian) 178 nM | GI50 (PC-3 prostate) 253 nM | GI50 (RPMI-8226 leukemia) 28.7 nM | GI50 (RXF 393 renal) 198 nM | GI50 (SF-295 CNS) 215 nM | GI50 (SK-MEL-5 melanoma) 251 nM | GI50 (SN12C renal) 347 nM | GI50 (SNB-75 CNS) 170 nM | GI50 (T-47D breast) 104 nM | GI50 (TK-10 renal) 384 nM | GI50 (UACC-62 melanoma) 389 nM | GI50 (UO-31 renal) 216 nM
7620 nM: TGI (NCI-H522 lung)
8800 nM: TGI (TK-10 renal)
509 nM: TGI (T-47D breast)
9780 nM: TGI (SK-MEL-2 melanoma)
1930 nM: TGI (SF-295 CNS)
2840 nM: TGI (NCI-H226 lung)
